From the NIST ThermoML archive (doi:10.1016/j.jct.2004.09.005)
Several values for one entry are separate records, joined by “and”; a condition that tells them apart may be missing. Equal entries are not always repeated. Numbers after ± are expanded uncertainties.

Assays:
[1] = Molar enthalpy of transition or fusion; conditions: Crystal; DSC
[2] = Crystal; for vapor or sublimation pressure: Calculated from knudsen effusion weight loss; for Normal melting temperature: DTA

O=C(O)c1ccc(Br)cc1 [4-bromobenzoic acid]
Molar enthalpy of transition or fusion [1]: 30.9 ± 0.68 kJ/mol | vapor or sublimation pressure ([2]; 348.67 K): 0.000155 ± 8e-06 kPa and 0.000153 ± 8e-06 kPa and 0.000152 ± 8e-06 kPa | vapor or sublimation pressure ([2]; 350.14 K): 0.000176 ± 9e-06 kPa and 0.00018 ± 9e-06 kPa and 0.000175 ± 9e-06 kPa | vapor or sublimation pressure ([2]; 351.67 K): 0.000202 ± 1e-05 kPa and 0.000205 ± 1e-05 kPa | vapor or sublimation pressure ([2]; 353.14 K): 0.000245 ± 1.2e-05 kPa and 0.00024 ± 1.2e-05 kPa | vapor or sublimation pressure ([2]; 354.65 K): 0.000276 ± 1.4e-05 kPa and 0.000278 ± 1.4e-05 kPa | vapor or sublimation pressure ([2]; 356.17 K): 0.000331 ± 1.7e-05 kPa and 0.000324 ± 1.6e-05 kPa and 0.000326 ± 1.6e-05 kPa | vapor or sublimation pressure ([2]; 357.67 K): 0.000384 ± 1.9e-05 kPa and 0.000389 ± 1.9e-05 kPa and 0.000376 ± 1.9e-05 kPa | vapor or sublimation pressure ([2]; 359.24 K): 0.000448 ± 2.2e-05 kPa and 0.000429 ± 2.1e-05 kPa and 0.000447 ± 2.2e-05 kPa | vapor or sublimation pressure ([2]; 360.65 K): 0.000517 ± 2.6e-05 kPa and 0.000495 ± 2.5e-05 kPa and 0.000512 ± 2.6e-05 kPa | vapor or sublimation pressure ([2]; 362.22 K): 0.000609 ± 3e-05 kPa and 0.000617 ± 3.1e-05 kPa and 0.000611 ± 3.1e-05 kPa | vapor or sublimation pressure ([2]; 363.63 K): 0.000692 ± 3.5e-05 kPa and 0.000703 ± 3.5e-05 kPa and 0.000683 ± 3.4e-05 kPa | vapor or sublimation pressure ([2]; 365.23 K): 0.00082 ± 4.1e-05 kPa and 0.000809 ± 4e-05 kPa | vapor or sublimation pressure ([2]; 366.65 K): 0.000932 ± 4.7e-05 kPa and 0.000909 ± 4.5e-05 kPa | Normal melting temperature [2]: 253.19 ± 0.84 °C

O=C(O)c1cccc(Cl)c1 [3-chlorobenzoic acid]
Molar enthalpy of transition or fusion [1]: 23.7 ± 0.56 kJ/mol | vapor or sublimation pressure ([2]; 320.13 K): 0.000109 ± 5e-06 kPa and 0.000106 ± 5e-06 kPa and 0.000104 ± 5e-06 kPa | vapor or sublimation pressure ([2]; 321.18 K): 0.000122 ± 6e-06 kPa and 0.00012 ± 6e-06 kPa and 0.000117 ± 6e-06 kPa | vapor or sublimation pressure ([2]; 324.17 K): 0.000173 ± 9e-06 kPa and 0.000171 ± 9e-06 kPa and 0.00017 ± 9e-06 kPa | vapor or sublimation pressure ([2]; 327.14 K): 0.000241 ± 1.2e-05 kPa and 0.000236 ± 1.2e-05 kPa and 0.000245 ± 1.2e-05 kPa | vapor or sublimation pressure ([2]; 330.15 K): 0.000335 ± 1.7e-05 kPa and 0.000327 ± 1.6e-05 kPa and 0.000324 ± 1.6e-05 kPa | vapor or sublimation pressure ([2]; 333.17 K): 0.000474 ± 2.4e-05 kPa and 0.000472 ± 2.4e-05 kPa and 0.00047 ± 2.4e-05 kPa | vapor or sublimation pressure ([2]; 336.13 K): 0.000655 ± 3.3e-05 kPa and 0.000644 ± 3.2e-05 kPa | vapor or sublimation pressure ([2]; 339.01 K): 0.000896 ± 4.5e-05 kPa and 0.000873 ± 4.4e-05 kPa and 0.000877 ± 4.4e-05 kPa | vapor or sublimation pressure ([2]; 340.13 K): 0.001012 ± 0.0001 kPa and 0.000984 ± 4.9e-05 kPa and 0.00099 ± 5e-05 kPa | Normal melting temperature [2]: 154.72 ± 0.55 °C

O=C(O)c1cccc(Br)c1 [3-bromobenzoic acid]
Molar enthalpy of transition or fusion [1]: 24.9 ± 0.56 kJ/mol | vapor or sublimation pressure ([2]; 327.67 K): 0.000111 ± 6e-06 kPa and 0.000113 ± 6e-06 kPa | vapor or sublimation pressure ([2]; 330.66 K): 0.00016 ± 8e-06 kPa and 0.000152 ± 8e-06 kPa | vapor or sublimation pressure ([2]; 332.64 K): 0.0002 ± 1e-05 kPa and 0.000196 ± 1e-05 kPa | vapor or sublimation pressure ([2]; 335.16 K): 0.00025 ± 1.3e-05 kPa and 0.000253 ± 1.3e-05 kPa and 0.000261 ± 1.3e-05 kPa | vapor or sublimation pressure ([2]; 337.71 K): 0.000354 ± 1.8e-05 kPa and 0.000351 ± 1.8e-05 kPa and 0.00035 ± 1.8e-05 kPa | vapor or sublimation pressure ([2]; 340.14 K): 0.000464 ± 2.3e-05 kPa and 0.000451 ± 2.3e-05 kPa and 0.00045 ± 2.3e-05 kPa | vapor or sublimation pressure ([2]; 342.65 K): 0.000596 ± 3e-05 kPa and 0.00059 ± 3e-05 kPa and 0.000584 ± 2.9e-05 kPa | vapor or sublimation pressure ([2]; 345.15 K): 0.000783 ± 3.9e-05 kPa and 0.00077 ± 3.9e-05 kPa and 0.000767 ± 3.8e-05 kPa | vapor or sublimation pressure ([2]; 347.6 K): 0.000995 ± 5e-05 kPa and 0.001004 ± 0.0001 kPa and 0.000982 ± 4.9e-05 kPa | Normal melting temperature [2]: 156.93 ± 0.45 °C

O=C(O)c1ccccc1Br [2-bromobenzoic acid]
Molar enthalpy of transition or fusion [1]: 24.8 ± 0.85 kJ/mol | vapor or sublimation pressure ([2]; 327.56 K): 9.4e-05 ± 5e-06 kPa and 9.1e-05 ± 5e-06 kPa | vapor or sublimation pressure ([2]; 330.16 K): 0.000127 ± 6e-06 kPa and 0.000126 ± 6e-06 kPa and 0.000125 ± 6e-06 kPa | vapor or sublimation pressure ([2]; 332.67 K): 0.000169 ± 8e-06 kPa and 0.000174 ± 9e-06 kPa and 0.000167 ± 8e-06 kPa | vapor or sublimation pressure ([2]; 335.15 K): 0.000227 ± 1.1e-05 kPa and 0.000223 ± 1.1e-05 kPa and 0.000224 ± 1.1e-05 kPa | vapor or sublimation pressure ([2]; 337.69 K): 0.000297 ± 1.5e-05 kPa and 0.000299 ± 1.5e-05 kPa and 0.000296 ± 1.5e-05 kPa | vapor or sublimation pressure ([2]; 340.16 K): 0.000402 ± 2e-05 kPa and 0.000394 ± 2e-05 kPa and 0.000392 ± 2e-05 kPa | vapor or sublimation pressure ([2]; 342.63 K): 0.000533 ± 2.7e-05 kPa and 0.000524 ± 2.6e-05 kPa | vapor or sublimation pressure ([2]; 345.16 K): 0.000665 ± 3.3e-05 kPa and 0.000698 ± 3.5e-05 kPa and 0.000678 ± 3.4e-05 kPa | vapor or sublimation pressure ([2]; 347.68 K): 0.000908 ± 4.5e-05 kPa and 0.000897 ± 4.5e-05 kPa and 0.000878 ± 4.4e-05 kPa | Normal melting temperature [2]: 148.5 ± 0.56 °C

O=C(O)c1ccccc1Cl [2-chlorobenzoic acid]
Molar enthalpy of transition or fusion [1]: 25.2 ± 0.57 kJ/mol | vapor or sublimation pressure ([2]; 320.16 K): 0.000103 ± 5e-06 kPa and 0.000102 ± 5e-06 kPa and 0.0001 ± 5e-06 kPa | vapor or sublimation pressure ([2]; 322.16 K): 0.000127 ± 6e-06 kPa and 0.000126 ± 6e-06 kPa | vapor or sublimation pressure ([2]; 324.14 K): 0.000166 ± 8e-06 kPa and 0.000164 ± 8e-06 kPa and 0.000163 ± 8e-06 kPa | vapor or sublimation pressure ([2]; 326.14 K): 0.000205 ± 1e-05 kPa and 0.000204 ± 1e-05 kPa and 0.000206 ± 1e-05 kPa | vapor or sublimation pressure ([2]; 329.15 K): 0.0003 ± 1.5e-05 kPa and 0.000294 ± 1.5e-05 kPa | vapor or sublimation pressure ([2]; 332.13 K): 0.000417 ± 2.1e-05 kPa and 0.000414 ± 2.1e-05 kPa and 0.00041 ± 2.1e-05 kPa | vapor or sublimation pressure ([2]; 335.18 K): 0.000584 ± 2.9e-05 kPa and 0.000582 ± 2.9e-05 kPa and 0.000576 ± 2.9e-05 kPa | vapor or sublimation pressure ([2]; 337.14 K): 0.000734 ± 3.7e-05 kPa and 0.000721 ± 3.6e-05 kPa | vapor or sublimation pressure ([2]; 339.15 K): 0.000934 ± 4.7e-05 kPa and 0.000935 ± 4.7e-05 kPa and 0.00092 ± 4.6e-05 kPa | Normal melting temperature [2]: 140.80 ± 0.39 °C
